Experiment [1] addresses T1, glutathione S-transferase (GST)-linked full-length human Syk protein (Homo sapiens, UniProt P43405).
T1 construct: glutathione S-transferase (GST)-linked full-length human Syk protein; purchased Carna Biosciences; host or cells: Baculovirus expression system
Put plainly: Syk enzyme assay. In kind it is biochemical. The conditions noted are these: 0.83 nM Syk, time-resolved fluorescence; read-out: IC50 of Syk-inhibitory activity. The gist of the method:
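Phosphotyrosine on a biotin-peptide substrate (0.5 μM) was read by time-resolved fluorescence at 615 and 665 nm with Eu-anti-pTyr antibody and APC-streptavidin after 1 h EDTA stop.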

Experiment [2] concerns THP-1 cells (TNFα secretion on human IgG-coated plate). The experiment in a line: TNFα generation assay. In kind it is cell-based. The conditions noted are these: IFN-γ differentiated THP-1 cells, 7 hours, AlphaLISA, read-out: IC50 of TNFα generation inhibitory activity. As to the method:
THP-1 cells (2×10^5 cells/ml), which were human monocytoid cells, were cultured in the presence of 10 ng/ml IFN-γ (Roche) for 2 days, and they were induced to differentiate into macrophage-like cells. The differentiation-induced THP-1 cells were recovered, and the cells (1×10^6 cell/ml) were then allowed to react with a predetermined concentration of test compound at room temperature for 30 minutes. On the other hand, 100 μl of human IgG (10 μg/ml, SIGMA-ALDRICH) diluted with PBS was added to a 96-well plate, and it was then incubated at room temperature overnight. Thereafter, the resultant was washed with PBS twice to produce a human IgG-coated plate. A cell fluid that contained a compound was plated on the obtained human IgG-coated plate (5×10^4 cells/well), and it was then cultured for 7 hours. Thereafter, the cultured solution was recovered, and the amount of TNFα secreted into the culture solution was then measured by the AlphaLISA method (PerkinElmer).

Consider `COCCn1ncc2c(Nc3nc(N[C@@H]4CCCC[C@@H]4N)c(F)cc3C(N)=O)cc(F)cc21` [Example 2-374, 6-(((1R,2S)-2-aminocyclohexyl)amino)-5-fluoro-2-((6-fluoro-1-(2-methoxyethyl)-1H-indazol-4-yl)amino)nicotinamide], for which the IC50 was below 10 nM in experiment [1] and 130 to 200 nM in experiment [2].
As to `CCCC[C@@H](Nc1nc(Nc2ccc3cnn(C)c3c2)c(C(N)=O)cc1F)[C@H](C)N` [Example 2-38, 6-(((2S,3R)-2-aminoheptan-3-yl)amino)-5-fluoro-2-((1-methyl-1H-indazol-6-yl)amino)nicotinamide], the IC50 in experiment [1] was below 10 nM; in experiment [2], 65 to 130 nM.
Regarding `CCCC[C@@H](Nc1nc(Nc2ccc3c(c2)c(OC)nn3C)c(C(N)=O)cc1F)[C@H](C)N` [Example 2-83, 6-(((2S,3R)-2-aminoheptan-3-yl)amino)-5-fluoro-2-((3-methoxy-1-methyl-1H-indazol-5-yl)amino)nicotinamide], the IC50 in experiment [1] is below 10 nM; in experiment [2], 130 to 200 nM.
In the case of `NC(=O)c1cc(F)c(N[C@@H]2CCCC[C@@H]2N)nc1Nc1cnc(-n2nccn2)c(F)c1` [Example 2-67, 6-(((1R,2S)-2-aminocyolohexyl)amino)-5-fluoro-2-((5-fluoro-6-(2H-1,2,3-triazol-2-yl)pyridin-3-yl)amino)nicotinamide], the IC50 is 10 to 50 nM in experiment [1] and 130 to 200 nM in experiment [2].
In the case of `CC[C@H](N)[C@H](Nc1nc(Nc2cccc3c2cnn3C)c(C(N)=O)cc1F)C1CC1` [Example 2-546, 6-(((1R,2S)-2-amino-1-cyclopropylbutyl)amino)-5-fluoro-2-((1-methyl-1H-indazol-4-yl)amino)nicotinamide], the IC50 was below 10 nM in experiment [1] and 130 to 200 nM in experiment [2].
The like results for `Cc1cnn(-c2cncc(Nc3nc(N[C@@H]4CCCC[C@@H]4N)c(F)cc3C(N)=O)c2)c1` [Example 2-472, 6-(((1R,2S)-2-aminocyclohexyl)amino)-5-fluoro-2-((5-(4-methyl-1H-pyrazol-1-yl)pyridin-3-yl)amino)nicotinamide] were, in that order, below 10 nM and below 65 nM.
On the same counts, the results for `COc1nn(C)c2c(F)cc(Nc3nc(N[C@@H](CN)CC(C)C)c(F)cc3C(N)=O)cc12` [Example 2-151, (R)-6-((1-amino-4-methylpentan-2-yl)amino)-5-fluoro-2-((7-fluoro-3-methoxy-1-methyl-1H-indazol-5-yl)amino)nicotinamide] are below 10 nM and 130 to 200 nM.
Regarding `COc1cccc(Nc2nc(N[C@H](C3CC3)[C@H](C)N)c(F)cc2C(N)=O)c1` [Example 2-46, 6-(((1R,2S)-2-amino-1-cyclopropylpropyl)amino)-5-fluoro-2-((3-methoxyphenyl)amino)nicotinamide], the results for the IC50 in experiment [1] and in experiment [2] were below 10 nM and 65 to 130 nM, respectively.
On to `CCC[C@@H](Nc1nc(Nc2cnc(OCC)c(-n3ccnn3)c2)c(C(N)=O)cc1F)[C@H](C)N` [Example 2-207, 6-(((2S,3R)-2-aminohexan-3-yl)amino)-2-((6-ethoxy-5-(1H-1,2,3-triazol-1-yl)pyridin-3-yl)amino)-5-fluoronicotinamide], for which the IC50 in experiment [1] was below 10 nM; in experiment [2], 65 to 130 nM.
The like results for `C[C@H](N)[C@H](Nc1nc(Nc2ccc(F)cc2)c(C(N)=O)cc1F)C1CC1` [Example 2-58, 6-(((1R,2S)-2-amino-1-cyclopropylpropyl)amino)-5-fluoro-2-((4-fluorophenyl)amino)nicotinamide] were, in that order, 10 to 50 nM and 130 to 200 nM.
For the compound `CC(=O)c1cccc(Nc2nc(N[C@H](C3CC3)[C@H](C)N)c(F)cc2C(N)=O)c1` [Example 2-482, 2-((3-acetylphenyl)amino)-6-(((1R,2S)-2-amino-1-cyclopropylpropyl)amino)-5-fluoronicotinamide], the IC50 in experiment [1] is below 10 nM; in experiment [2], 65 to 130 nM.
As to `Cc1cc(C)cc(Nc2nc(N[C@H](C3CCC3)[C@H](C)N)c(F)cc2C(N)=O)c1` [Example 2-26, 6-(((1R,2S)-2-amino-1-cyclobutylpropyl)amino)-2-((3,5-dimethylphenyl)amino)-5-fluoronicotinamide], the IC50 in experiment [1] is below 10 nM; in experiment [2], 130 to 200 nM.
`CC[C@@H](Nc1nc(Nc2cccc(-n3nccn3)c2)c(C(N)=O)cc1F)[C@H](C)N` [Example 2-475, 2-((3-(2H-1,2,3-triazol-2-yl)phenyl)amino)-6-(((2S,3R)-2-aminopentan-3-yl)amino)-5-fluoronicotinamide]: the IC50 in experiment [1] is below 10 nM; in experiment [2] it was 65 to 130 nM.
With `Cc1ncc(Nc2nc(N[C@@H]3CCOC[C@@H]3N)c(F)cc2C(N)=O)cc1F` [Example 2-225, 6-(((3R,4R)-3-aminotetrahydro-2H-pyran-4-yl)amino)-5-fluoro-2-((5-fluoro-6-methylpyridin-3-yl)amino)nicotinamide], the values for the IC50 in experiment [1] and in experiment [2] were 10 to 50 nM and 130 to 200 nM, respectively.
For the compound `CCOC[C@@H](Nc1nc(Nc2cc(OC)cc(OC)c2)c(C(N)=O)cc1F)[C@H](C)N` [Example 2-268, 6-(((2S,3S)-3-amino-1-ethoxybutan-2-yl)amino)-2-((3,5-dimethoxyphenyl)amino)-5-fluoronicotinamide], the IC50 in experiment [1] lay within 10 to 50 nM; in experiment [2], 130 to 200 nM.
In the case of `CC[C@H](N)[C@@H](C)Nc1nc(Nc2ccc3c(c2)c(OC)nn3C)c(C(N)=O)cc1F` [Example 2-84, 6-(((2R,3S)-3-aminopentan-2-yl)amino)-5-fluoro-2-((3-methoxy-1-methyl-1H-indazol-5-yl)amino)nicotinamide], the IC50 in experiment [1] is below 10 nM; in experiment [2], 130 to 200 nM.
Turning to `CCn1ncc2cc(Nc3nc(N[C@H](c4ccccn4)[C@H](C)N)c(F)cc3C(N)=O)ccc21` [Example 2-381], the figures for the IC50 in experiment [1] and in experiment [2] were below 10 nM and 65 to 130 nM, respectively.
Take `Cc1nn(C)c2ccc(Nc3nc(N[C@@H]4CCOC[C@@H]4N)c(F)cc3C(N)=O)cc12` [Example 2-208, 6-(((3R,4R)-3-aminotetrahydro-2H-pyran-4-yl)amino)-2-((1,3-dimethyl-1H-indazol-5-yl)amino)-5-fluoronicotinamide]: the IC50 is below 10 nM in experiment [1] and below 65 nM in experiment [2].
On to `CC(=O)c1cc(Nc2nc(N[C@@H]3CCCC[C@@H]3N)c(F)cc2C(N)=O)cnc1C` [Example 2-518, 2-((5-acetyl-6-methylpyridin-3-yl)amino)-6-(((1R,2S)-2-aminocyclohexyl)amino)-5-fluoronicotinamide], for which the IC50 in experiment [1] is below 10 nM; in experiment [2], 65 to 130 nM.
The like results for `Cc1cccc(Nc2nc(N[C@@H]3CCCC[C@@H]3N)c(F)cc2C(N)=O)c1` [Example 2-434, 6-(((1R,2S)-2-aminocyclohexyl)amino)-5-fluoro-2-(m-tolylamino)nicotinamide] were, in that order, below 10 nM and 65 to 130 nM.
For the compound `Cc1nn(C)c2ncc(Nc3nc(N[C@H](C4CC4)[C@H](C)N)c(F)cc3C(N)=O)cc12` [Example 2-243, 6-(((1R,2S)-2-amino-1-cyclopropylpropyl)amino)-2-((1,3-dimethyl-1H-pyrazolo[3,4-b]pyridin-5-yl)amino)-5-fluoronicotinamide], the IC50 in experiment [1] was in the range of 10 to 50 nM; in experiment [2], 130 to 200 nM.
For the compound `COc1cc(Nc2nc(N[C@H](c3cccc(F)c3)[C@H](C)N)c(F)cc2C(N)=O)cc(OC)n1` [Example 2-414], the results for the IC50 in experiment [1] and in experiment [2] were below 10 nM and 65 to 130 nM, respectively.
For the compound `CCn1ncc2cc(Nc3nc(N[C@H](C)[C@@H](N)C4CC4)c(F)cc3C(N)=O)ccc21` [Example 2-230, 6-(((1S,2R)-1-amino-1-cyclopropylpropan-2-yl)amino)-2-((1-ethyl-1H-indazol-1-5-yl)amino)-5-fluoronicotinamide], the IC50 fell in the range of 10 to 50 nM in experiment [1] and 65 to 130 nM in experiment [2].
The like results for `CCn1nc(OC)c2cc(Nc3nc(N[C@H](C4CC4)[C@H](C)N)c(F)cc3C(N)=O)ccc21` [Example 2-73, 6-(((1R,2S)-2-amino-1-cyclopropylpropyl)amino)-2-((1-ethyl-3-methoxy-1H-indazol-5-yl)amino)-5-fluoronicotinamide] were, in that order, below 10 nM and 130 to 200 nM.
Consider `CC(C)[C@@H](Nc1nc(Nc2ccc3ncccc3c2)c(C(N)=O)cc1F)[C@H](C)N` [Example 2-106, 6-(((2S,3R)-2-amino-4-methylpentan-3-yl)amino)-5-fluoro-2-(quinolin-6-ylamino)nicotinamide], for which the IC50 fell in the range of 10 to 50 nM in experiment [1] and 130 to 200 nM in experiment [2].
`COCCn1nc(C)c2cc(Nc3nc(N[C@H](CC(C)C)[C@H](C)N)c(F)cc3C(N)=O)ccc21` [Example 2-134, 6-(((2S,3R)-2-amino-5-methylhexan-3-yl)amino)-5-fluoro-2-((1-(2-methoxyethyl)-3-methyl-1H-indazol-5-yl)amino)nicotinamide]: the values for the IC50 in experiment [1] and in experiment [2] were below 10 nM and 130 to 200 nM, respectively.
Take `C[C@H](N)[C@H](Nc1nc(Nc2cccc3ncccc23)c(C(N)=O)cc1F)C1CC1` [Example 2-404, 6-(((1R,2S)-2-amino-1-cyclopropylpropyl)amino)-5-fluoro-2-(quinolin-5-ylamino)nicotinamide]: the IC50 was below 10 nM in experiment [1] and 65 to 130 nM in experiment [2].

The values are drawn from patent publication US9051310B2, “Nicotinamide derivative or salt thereof” (FUJIFILM Corporation, priority 2011, dated 2015).
